Data from US20110059970A1, “4-PHENYL-1,3-THIAZOLES AND 4-PHENYL-1,3-OXAZOLES DERIVATIVES AS CANNABINOID RECEPTOR LIGANDS” (IPSEN PHARMA S.A.S., priority 2007, published 2011).
pKi: −log10 of the molar value. Where a name gives a salt, the structure may show the parent alone.

System: not given
Experiment: not given
Conditions: not given

| Compound | melting point |
| --- | --- |
| CN1CCC(c2nc(-c3cc(C(C)(C)C)c(O)c(C(C)(C)C)c3)cs2)(N(C)C)CC1 (as salt: hydrochloride) [Example 23, 2,6-di-tert-butyl-4-{2-[4-(dimethylamino)-1-methylpiperidin-4-yl]-1,3-thiazol-4-yl}phenol hydrochloride] | 236 to 238 °C |
| COc1ccc(Oc2ccc(-c3csc(C4(N(C)C)CCOCC4)n3)cc2)cc1 (as salt: hydrochloride) | 120 to 121 °C |
| COc1c(C(C)(C)C)cc(-c2csc(C3(N)CCOCC3)n2)cc1C(C)(C)C [Example 1, {4-[4-(3,5-di-tert-butyl-4-methoxyphenyl)-1,3-thiazol-2-yl]tetrahydro-2H-pyran-4-yl}amine] | 128.4 to 129.7 °C |
| COc1c(-c2csc(C3(N(C)C)CCOCC3)n2)cc(C(C)(C)C)cc1C(C)(C)C (as salt: hydrochloride) | 199.4 to 200.7 °C |
| CN(C)C1(c2nc(-c3ccc(Oc4ccccc4)cc3)cs2)CCOCC1 (as salt: hydrochloride) [Example 16, N,N-dimethyl-4-[4-(4-phenoxyphenyl)-1,3-thiazol-2-yl]tetrahydro-2H-pyran-4-amine hydrochloride] | 213 to 223.2 °C |
| CN(C)C1(c2nc(-c3ccc(Oc4ccc([N+](=O)[O-])cc4)cc3)cs2)CCOCC1 (as salt: hydrochloride) [Example 32, N,N-dimethyl-4-{4-[4-(4-nitrophenoxy)phenyl]-1,3-thiazol-2-yl}tetrahydro-2H-pyran-4-amine hydrochloride] | 167 to 169 °C |
| COc1c(C(C)(C)C)cc(-c2csc(C3(N(C)C)CCOCC3)n2)cc1C(C)(C)C (as salt: hydrochloride) [Example 2, {4-[4-(3,5-di-tert-butyl-4-methoxyphenyl)-1,3-thiazol-2-yl]tetrahydro-2H-pyran-4-yl}dimethylamine hydrochloride] | 215 to 216.7 °C |
| CN(C)C1(c2nc(-c3ccc(Cc4ccccc4)cc3)cs2)CCOCC1 (as salt: hydrochloride) [Example 29, {4-[4-(4-benzylphenyl)-1,3-thiazol-2-yl]tetrahydro-2H-pyran-4-yl}dimethylamine hydrochloride] | 228.4 to 229.5 °C |
| CN(C)C1(c2nc(-c3cc(C(F)(F)F)cc(C(F)(F)F)c3)cs2)CCOCC1 (as salt: hydrochloride) [Example 9, (4-{4-[3,5-bis(trifluoromethyl)phenyl]-1,3-thiazol-2-yl}tetrahydro-2H-pyran-4-yl)dimethylamine hydrochloride] | 232.2 to 233 °C |
| COc1ccc(-c2csc(C3(N(C)C)CCOCC3)n2)cc1C(C)(C)C (as salt: hydrochloride) [Example 14, {4-[4-(3-tert-butyl-4-methoxyphenyl)-1,3-thiazol-2-yl]tetrahydro-2H-pyran-4-yl}dimethylamine hydrochloride] | 232.7 to 233.5 °C |
| CN(C)C1(c2nc(-c3ccc(Sc4ccccc4)cc3)cs2)CCOCC1 (as salt: hydrochloride) [Example 33, N,N-dimethyl-4-{4-[4-(phenylthio)phenyl]-1,3-thiazol-2-yl}tetrahydro-2H-pyran-4-amine hydrochloride] | 215 to 218.8 °C |
| CN(C)C1(c2nc(-c3ccc(Oc4cccc(Cl)c4C#N)cc3)cs2)CCOCC1 (as salt: hydrochloride) | 127 to 130 °C |
| CN(C)C1(c2nc(-c3ccc(C(C)(C)C)cc3)cs2)CCOCC1 (as salt: hydrochloride) [Example 8, {4-[4-(4-tert-butylphenyl)-1,3-thiazol-2-yl]tetrahydro-2H-pyran-4-yl}dimethylamine hydrochloride] | 205 to 207 °C |
| COc1c(Cl)cc(-c2csc(C3(N(C)C)CCOCC3)n2)cc1C(C)(C)C (as salt: hydrochloride) [Example 13, {4-[4-(3-tert-butyl-5-chloro-4-methoxyphenyl)-1,3-thiazol-2-yl]tetrahydro-2H-pyran-4-yl}dimethylamine hydrochloride] | 219.7 to 222.2 °C |
| COc1c(C)cc(-c2csc(C3(N(C)C)CCOCC3)n2)cc1C (as salt: hydrochloride) | 237.5 to 239 °C |
| CC(C)(C)c1cc(-c2csc(C3(N)CCSCC3)n2)cc(C(C)(C)C)c1O [Example 5, 4-[2-(4-aminotetrahydro-2H-thiopyran-4-yl)-1,3-thiazol-4-yl]-2,6-di-tert-butylphenol] | 148.8 to 150.8 °C |
| CC(C)(C)c1cc(-c2csc(C3(N)CCOCC3)n2)cc(C(C)(C)C)c1 [Example 10, {4-[4-(3,5-di-tert-butylphenyl)-1,3-thiazol-2-yl]tetrahydro-2H-pyran-4-yl}amine] | 114 to 114.4 °C |

Biological target: T1, human CB2 receptors (Homo sapiens, UniProt P34972)
T1 construct: expressed in transfected cells; membranes prepared from them
Experiment: Affinity for human CB2 receptors: inhibition of [3H]-CP55940 binding to membranes of transfected CHO-K1 cells
Conditions: not given
Experimental: Study of the Affinity of the Compounds for Human Cannabinoid CB2 Receptors
The affinity of the compounds of the invention for human CB2 receptors was determined by measuring inhibition of [^3H]-CP55940 binding to membrane preparations produced from transfected CHO-K1 cells.
CHO-K1 cells stably expressing human CB2 receptors were cultured in RPMI 1640 medium supplemented with 10% foetal calf serum, 2 mM glutamine, 100 U/ml penicillin, 0.1 mg/ml streptomycin and 0.5 mg/ml G418. The cells were collected using 0.5 mM EDTA and centrifuged at 500 g for 5 min at 4° C. The cell pellet was resuspended in phosphate buffered saline (PBS) and centrifuged at 500 g for 5 min at 4° C. The pellet was resuspended in 50 mM tris buffer pH 7.4 and centrifuged at 500 g for 5 min at 4° C. The cells were lysed by sonication and centrifuged at 39,000 g for 10 min at 4° C. The pellet was resuspended in 50 mM tris buffer pH 7.4 and centrifuged at 50,000 g for 10 min at 4° C. The membranes obtained in this final pellet were stored at −80° C.
Competitive inhibition of the binding of [^3H]-CP55940 to CB2 receptors was determined in duplicate in 96-well polypropylene plates. Cell membranes (10 μg of protein/well) were incubated with [^3H]-CP55940 (1 nM) for 60 min at 25° C. in 50 mM Tris-HCl buffer, pH 7.4, containing 0.1% bovine serum albumin (BSA), 5 mM MgCl2, and 50 μg/ml of bacitracin.
Bound [^3H]-CP55940 was separated from free [^3H]-CP55940 by filtration through GF/C fibre glass filter plates (Unifilter, Packard) pre-impregnated with 0.1% polyethylenimine (P.E.I.), using a Filtermate 196 (Packard). The filters were washed with 50 mM Tris-HCl buffer, pH 7.4 at 0-4° C. and the radioactivity present was determined using a counter (Packard Top Count).
Specific binding was obtained by subtracting non-specific binding (determined in the presence of 0.1 μM WIN55212-2) from total binding. The data were analysed by computer-assisted nonlinear regression (MDL). For each test, the IC50 value was converted to a Ki value (inhibition constant) using the Cheng-Prusoff equation.
where [L] is the concentration of the radioligand used in the assay and Kd is the dissociation constant of the radioligand at equilibrium.

T1 sequence (P34972 whole entry): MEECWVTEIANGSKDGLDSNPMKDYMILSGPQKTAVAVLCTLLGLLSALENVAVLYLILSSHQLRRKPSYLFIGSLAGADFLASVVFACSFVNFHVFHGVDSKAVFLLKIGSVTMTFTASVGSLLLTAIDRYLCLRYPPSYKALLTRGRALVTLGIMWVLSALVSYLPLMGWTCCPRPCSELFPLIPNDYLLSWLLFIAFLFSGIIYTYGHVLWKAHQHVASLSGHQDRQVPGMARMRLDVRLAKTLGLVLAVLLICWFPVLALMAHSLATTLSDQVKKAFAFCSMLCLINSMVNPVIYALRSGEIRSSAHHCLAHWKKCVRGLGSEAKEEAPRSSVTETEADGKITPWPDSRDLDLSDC

| Compound | pKi |
| --- | --- |
| COc1c(C(C)(C)C)cc(-c2nc(C3(N(C)C)CCOCC3)sc2C)cc1C(C)(C)C [Example 25, {4-[4-(3,5-di-tert-butyl-4-methoxyphenyl)-5-methyl-1,3-thiazol-2-yl]tetrahydro-2H-pyran-4-yl}dimethylamine hydrochloride] | 6.30 to 7.00 |
| CN(C)C1(c2nc(-c3cc(C(C)(C)C)c(O)c(C(C)(C)C)c3)cs2)CCSCC1 [Example 6, 2,6-di-tert-butyl-4-{2-[4-(dimethylamino)tetrahydro-2H-thiopyran-4-yl]-1,3-thiazol-4-yl}phenol hydrochloride] | ≥ 7.00 |
| COc1c(Cl)cc(-c2csc(C3(N(C)C)CCOCC3)n2)cc1C(C)(C)C [Example 13, {4-[4-(3-tert-butyl-5-chloro-4-methoxyphenyl)-1,3-thiazol-2-yl]tetrahydro-2H-pyran-4-yl}dimethylamine hydrochloride] | 6.30 to 7.00 |

Same assay, conditions: [3H]-CP55940 (1 nM) competition, CHO-K1 membranes; IC50 converted to Ki by Cheng-Prusoff; read-out: affinity for the CB2 receptor

| Compound | pKi |
| --- | --- |
| CCNC1(c2nc(-c3cc(C(C)(C)C)c(O)c(C(C)(C)C)c3)cs2)CCOCC1 [Example 17, 2,6-di-tert-butyl-4-{2-[4-(ethylamino)tetrahydro-2H-pyran-4-yl]-1,3-thiazol-4-yl}phenol] | 6.30 to 7.00 |
| CNC1(c2nc(-c3cc(C(C)(C)C)c(O)c(C(C)(C)C)c3)cs2)CCOCC1 [Example 19, 2,6-di-tert-butyl-4-{2-[4-(methylamino)tetrahydro-2H-pyran-4-yl]-1,3-thiazol-4-yl}phenol hydrochloride] | 6.30 to 7.00 |
| CC(C)(C)c1cc(-c2csc(C3(N)CCSCC3)n2)cc(C(C)(C)C)c1O [Example 5, 4-[2-(4-aminotetrahydro-2H-thiopyran-4-yl)-1,3-thiazol-4-yl]-2,6-di-tert-butylphenol] | 6.00 to 6.30 |
| CN(C)C1(c2nc(-c3cc(C(C)(C)C)c(O)c(C(C)(C)C)c3)cs2)CCOCC1 [Example 4, 2,6-di-tert-butyl-4-{2-[4-(dimethylamino)tetrahydro-2H-pyran-4-yl]-1,3-thiazol-4-yl}phenol hydrochloride] | ≥ 7.00 |
